Measurements taken from patent publication US20150079207A1, “Method for manufacturing Smilax China L root extract having increased active ingredients and beverage composition containing the extract fordetoxification” (priority 2013, published 2015).

Columns and labels:
Type in all cases: cell-based
HepG2 cells [1] = assay: Inhibition of formation of oxidatively damaged adducts caused by nicotine (DCFH-DA assay); settings: 50, 100, 250 μM (mixture 50, 100 μM) 2 h, then nicotine at IC50 24 h
Excerpt: When non-polar, uncharged DCFH-DA easily enters the cytoplasm through cell membranes, DCFH-DA is converted into 2′,7′-dichlorofluorescin (DCFH) showing no fluorescence by an intracellular enzyme, esterase, and DCFH is then oxidized into 2′,7′-dichlorofluorescein (DCF) showing fluorescence by various active oxygen produced in the cells. Since the measured fluorescence intensity is in proportion to a degree of intracellular oxidation, an effect of the index materials on oxidative damage of liver cells by nicotine was evaluated using the principle.
(§1) Thereafter, the experimental groups and the control were treated with nicotine at an IC50 concentration, and cultured for 24 hours. Trypsin-EDTA was divided, and the cells were detached, and treated with a 5 μM DCFH-DA reagent. After 30 minutes, the fluorescence was measured at an excitation wavelength of 488 nm and an emission wavelength of 525 nm using a multi-microplate reader (Thermo scientific).

HepG2 cells [2] = assay: Conversion rate of nicotine into cotinine (cotinine quantitative assay); settings: HepG2 after 1 mM nicotine; 50, 100, 250 μM (mixture 50, 100 μM); 10-120 min
Experimental: HepG2 (passage #99-100) cells kindly provided from the Korean Cell Line Bank were sub-cultured, divided into a 96 well plate, and then cultured under conditions of 5% CO2 and 37° C. until the cells reached 100% confluence, and the medium was removed. Thereafter, the HepG2 cells were cultured for a day in a medium containing 1 mM nicotine. […] Subsequently, the cultured cells were dividedly treated with trypsin-EDTA, and detached, and centrifuged to collect a cell pellet. The cell pellet was suspended in 100 μl of PBS, and homogenated for 30 seconds using an ultrasonicator. 100 μl of a 4M sodium acetate buffer (pH 4.7), 40 μl of 1.5M potassium cyanide, 40 μl of 0.4M chloramine T, and 200 μl of 78 mM barbituric acid (in acetone/water (50/50)) were sequentially added to the homogenated cells, mixed for 10 seconds, and then reacted at room temperature for 15 minutes. Then, 40 μl of 1M sodium metabisulfite was added to the reaction mixture to stop the reaction. Then, the reaction mixture was measured for absorbance at a wavelength of 490 nm using a multi-microplate reader (Thermo scientific), and the absorbance of the reaction mixture was quantified by comparison to the standard curve of a cotinine sample.

HepG2 cells [3] = assay: Protective effect on hepatotoxicity caused by alcohol (MTT assay); settings: 50, 100, 250 μM 2 h, then ethanol at IC50 24 h
Experimental: The MTT assay was generally described with reference to Evaluation Example 2.
Thereafter, the experimental groups and the control were treated with an aqueous solution of ethanol (50%) at an IC50 concentration, and cultured for 24 hours. After the medium was removed, the experimental groups and the control were treated with a 3-4,5 dimethylthiazol-2,5 diphenyltetrazolium bromide (MTT) reagent, and then cultured for 4 hours. Then, the medium was removed, and the experimental groups and the control were treated with a DMSO reagent, and measured for absorbance at a wavelength of 570 nm using a multi-microplate reader (Thermo scientific). Also, the cell viability was calculated using Equation 1.

HepG2 cells [4] = assay: Inhibition of formation of oxidatively damaged adducts caused by alcohol (DCFH-DA assay); settings: 50, 100, 250 μM 2 h, then ethanol at IC50 24 h
Experimental: The DCFH-DA assay was generally described with reference to Evaluation Example 3.
as §1, with “ethanol” for “nicotine”, “Then, trypsin-EDTA” for “Trypsin-EDTA”

Row | Structure (SMILES) | relative DCF fluorescence intensity (oxidatively damaged adducts by nicotine) vs nicotine-only control (HepG2 cells [1]) | cotinine conversion rate vs nicotine-only control (HepG2 cells [2]) | absorbance (MTT, cell viability) vs alcohol-only control (HepG2 cells [3]) | relative DCF fluorescence intensity (oxidatively damaged adducts by alcohol) vs alcohol-only control (HepG2 cells [4])
1 | Oc1cc(O)cc(/C=C/c2ccc(O)cc2O)c1 [oxyresveratrol] | relative DCF fluorescence intensity tended to decrease | cotinine conversion rate increased | absorbance increased as the concentration of the index material increased | relative DCF fluorescence intensity tended to decrease
2 | Oc1ccc(C=Cc2cc(O)cc(O)c2)cc1 [resveratrol] |  | cotinine conversion rate increased | absorbance increased as the concentration of the index material increased | 
